Test results reported in PubChem BioAssay (NCI).
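Results reflect a 48-hour exposure of cells in 96-well plates to compound at five concentrations. TGI marks complete inhibition of growth.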

How the values were obtained:
Test in all cases: NCI anticancer screen, dose series, 48 h
[1] = test system: RXF 393 renal
[2] = test system: A549 NSCLC
[3] = test system: COLO 205 colon
[4] = test system: SNB-19 CNS
[5] = test system: SK-MEL-5 melanoma
[6] = test system: MOLT-4 leukemia
[7] = test system: SF-268 CNS
[8] = test system: SK-MEL-2 melanoma
[9] = test system: A498 renal
[10] = test system: MALME-3M melanoma
[11] = test system: RPMI-8226 leukemia
[12] = test system: SF-295 CNS
[13] = test system: UO-31 renal
[14] = test system: OVCAR-3 ovarian
[15] = test system: NCI-H460 lung
[16] = test system: SW-620 colon

| Compound | TGI [1] [µM] | TGI [2] [µM] | TGI [3] [µM] | TGI [4] [µM] | TGI [5] [µM] | TGI [6] [µM] | TGI [7] [µM] | TGI [8] [µM] | TGI [9] [µM] | TGI [10] [µM] | TGI [11] [µM] | TGI [12] [µM] | TGI [13] [µM] | TGI [14] [µM] | TGI [15] [µM] | TGI [16] [µM] |
| --- | --- | --- | --- | --- | --- | --- | --- | --- | --- | --- | --- | --- | --- | --- | --- | --- |
| C/C(CC(=O)NC1=CC=C(NC(=O)C/C(C)=N\Nc2ccccc2)CC1)=N/Nc1ccccc1 | > 100 | > 100 | > 100 | > 100 | > 100 | > 100 | > 100 | > 100 | > 100 | > 100 | > 100 | > 100 | > 100 | > 100 | > 100 | – |
| Brc1ccc2c(c1)C1C(CO2)C(c2ccccc2)=NN1c1ccccc1 (stereo not drawn) | > 100 | > 100 | > 100 | > 100 | – | > 100 | > 100 | > 100 | > 100 | > 100 | > 100 | > 100 | > 100 | > 100 | > 100 | > 100 |
| N#CC(C(=N/NC(N)=S)/C(=N/NC(N)=S)C(C#N)c1ccc(Cl)cc1)c1ccc(Cl)cc1 (stereo not drawn) | > 100 | > 100 | > 100 | > 100 | > 100 | > 100 | > 100 | > 100 | > 100 | > 100 | – | > 100 | > 100 | > 100 | > 100 | > 100 |
| COc1ccc(NC(=O)CC(=O)N/N=C/c2ccc(N(CCC#N)S(=O)(=O)c3ccccc3)cc2)cc1 | – | > 100 | > 100 | > 100 | > 100 | > 100 | > 100 | > 100 | – | > 100 | > 100 | > 100 | > 100 | > 100 | > 100 | > 100 |
| CCOC(=O)c1[nH]c(CN(C)Cc2[nH]c(C(=O)OCC)c(C)c2C(=O)OCc2ccccc2)c(C(=O)OCc2ccccc2)c1C | 22.3 | 98.2 | > 100 | 42.2 | 22.2 | > 100 | > 100 | – | 34.9 | > 100 | – | > 100 | > 100 | 28.3 | 62.2 | > 100 |
| CSc1nc2c(c(O)c(C)c(=O)n2C2OCC(OC(C)=O)C(OC(C)=O)C2OC(C)=O)c(=O)n1C (stereo not drawn) | – | > 100 | > 100 | > 100 | > 100 | > 100 | > 100 | > 100 | > 100 | > 100 | > 100 | > 100 | > 100 | > 100 | > 100 | > 100 |
